Assay results from patent US20180155344A1, “TRICYCLIC PIPERIDINE COMPOUNDS” (ACTELION PHARMACEUTICALS LTD, priority 2015, published 2018).

Molecular target: T1, human TPH1 (Homo sapiens, UniProt P17752)
T1 sequence (P17752 1-444): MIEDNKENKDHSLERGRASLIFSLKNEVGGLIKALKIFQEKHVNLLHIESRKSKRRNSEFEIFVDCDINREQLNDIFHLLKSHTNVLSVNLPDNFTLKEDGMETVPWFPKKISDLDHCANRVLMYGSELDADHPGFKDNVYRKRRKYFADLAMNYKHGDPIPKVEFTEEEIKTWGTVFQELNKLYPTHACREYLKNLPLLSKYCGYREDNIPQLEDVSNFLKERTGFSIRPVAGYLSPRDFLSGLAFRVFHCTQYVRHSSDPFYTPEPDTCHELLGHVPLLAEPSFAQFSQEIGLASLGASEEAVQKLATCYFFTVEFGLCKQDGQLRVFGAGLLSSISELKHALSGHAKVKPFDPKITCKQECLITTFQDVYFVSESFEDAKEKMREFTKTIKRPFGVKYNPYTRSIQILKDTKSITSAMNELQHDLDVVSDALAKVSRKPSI
Assay: biochemical
From the text: Biochemical In Vitro Assay Using Fluorescence Readout
To generate the enzyme, full length human TPH1 is cloned into the plasmid pET20b(+) (Novagen) and expressed in E. coli. The bacterial cells are ruptured by sonication on ice and the lysate is cleared by centrifugation. The resulting protein in the pellet is re-extracted and TPH1 is purified from the obtained lysate by affinity chromatography using a pterin cosubstrate analog immobilized to the resin of the column. The protein is further purified by size exclusion chromatography to remove protein aggregates. The activity of TPH1 is determined by using a fluorescence assay. The enzyme activity assay is carried out at 15° C. with atmosphere oxygen for the duration of 60 minutes in a volume of 64 μl. The reaction is carried out in a 0.1 M Tris-HCl buffer, adjusted to pH 7.6, containing 1 mM DTT, 0.2 mg/mL catalase, 100 μM (±)-6-methyl-5,6,7,8-tetrahydropterine dihydrochloride, 40 μM L-tryptophan, and 40-80 nM of TPH1. The reaction is started by bringing together L-tryptophan with all the other reaction substituents and stopped by quenching with perchloric acid (HClO4). The amount of 5-hydroxy-L-tryptophan produced during the enzymatic reaction is determined by fluorescence readout. Fluorescence, as determined at 540 nm when excited at 300 nm wavelength, increases proportionally to the 5-hydroxy-L-tryptophan formed. Compounds are prepared as 10 mM stock solution in DMSO, then diluted in 384-well plates using DMSO followed by a transfer of the dilutions into the assay plate. Fluorescence is measured for each well and the fluorescence at 540 nm wavelength is compared to the fluorescence of the vehicle in place of compound. […] The calculated IC50 values may fluctuate depending on the daily biochemical assay performance. Fluctuations of this kind are known to those skilled in the art.

SMILES | IC50 [µM]
CS(=O)(=O)Nc1ccc(OCC(=O)N2CCc3nc4ccccn4c3C2c2ccc(Cl)cc2F)c(C2CC2)n1 (centres unmarked) [Example 1.4.9, N-(5-(2-(1-(4-chloro-2-fluorophenyl)-3,4-dihydroimidazo[1,2-a:5,4-c′]dipyridin-2(1H)-yl)-2-oxoethoxy)-6-cyclopropylpyridin-2-yl)methanesulfonamide] | 0.364
CN(CCO)c1ccc(OCC(=O)N2CCc3nc4ccccn4c3C2c2ccc(Cl)cc2F)c(Cl)n1 (centres unmarked) [Example 1.4.10, 1-(1-(4-chloro-2-fluorophenyl)-3,4-dihydroimidazo[1,2-a:5,4-c′]dipyridin-2(1H)-yl)-2-((2-chloro-6-((2-hydroxyethyl)(methyl)amino)pyridin-3-yl)oxy)ethan-1-one] | 0.087
CS(=O)(=O)c1ccc(OCC(=O)N2CCc3nc4ccccn4c3C2c2ccc(Cl)cc2F)c(Cl)n1 (centres unmarked) [Example 1.4.14, 1-(1-(4-chloro-2-fluorophenyl)-3,4-dihydroimidazo[1,2-a:5,4-c′]dipyridin-2(1H)-yl)-2-((2-chloro-6-(methylsulfonyl)pyridin-3-yl)oxy)ethan-1-one] | 0.287
CN(C)C(=O)c1ccc(OC2(C(=O)N3CCc4nc5ccccn5c4C3c3ccc(Cl)cc3F)CC2)c(Cl)n1 (centres unmarked) [Example 1.4.15, 6-chloro-5-(1-(1-(4-chloro-2-fluorophenyl)-1,2,3,4-tetrahydroimidazo[1,2-a:5,4-c′]dipyridine-2-carbonyl)cyclopropoxy)-N,N-dimethylpicolinamide] | 0.323
CS(=O)(=O)Nc1ccc(OC2(C(=O)N3CCc4nc5ccccn5c4C3c3ccc(Cl)cc3F)CC2)c(Cl)n1 (centres unmarked) [Example 1.4.16, N-(6-chloro-5-(1-(1-(4-chloro-2-fluorophenyl)-1,2,3,4-tetrahydroimidazo[1,2-a:5,4-c′]dipyridine-2-carbonyl)cyclopropoxy)pyridin-2-yl)methanesulfonamide] | 0.488
CN(C)C(=O)c1ccc(OC(C)(C)C(=O)N2CCc3nc4ccccn4c3C2c2ccc(Cl)cc2F)c(Cl)n1 (centres unmarked) [Example 1.4.17, 6-chloro-5-((1-(1-(4-chloro-2-fluorophenyl)-3,4-dihydroimidazo[1,2-a:5,4-c′]dipyridin-2(1H)-yl)-2-methyl-1-oxopropan-2-yl)oxy)-N,N-dimethylpicolinamide] | 0.949

These reach a lower IC50. Values come first.

IC50 [µM] | SMILES
0.058 | CN(C)c1ccc(OCC(=O)N2CCc3nc4ccccn4c3C2c2ccc(Cl)cc2F)c(Cl)n1 (centres unmarked) [Example 1.4.12, 1-(1-(4-chloro-2-fluorophenyl)-3,4-dihydroimidazo[1,2-a:5,4-c′]dipyridin-2(1H)-yl)-2-((2-chloro-6-(dimethylamino)pyridin-3-yl)oxy)ethan-1-one]
0.039 | COCCN(C)c1ccc(OCC(=O)N2CCc3nc4ccccn4c3C2c2ccc(Cl)cc2F)c(Cl)n1 (centres unmarked) [Example 1.4.8, 1-(1-(4-chloro-2-fluorophenyl)-3,4-dihydroimidazo[1,2-a:5,4-c′]dipyridin-2(1H)-yl)-2-((2-chloro-6-((2-methoxyethyl)(methyl)amino)pyridin-3-yl)oxy)ethan-1-one]
0.036 | O=C(NC1CC1)c1ccc(OCC(=O)N2CCc3nc4ccccn4c3C2c2ccc(Cl)cc2F)c(C2CC2)n1 (centres unmarked) [Example 1.4.13, 5-(2-(1-(4-chloro-2-fluorophenyl)-3,4-dihydroimidazo[1,2-a:5,4-c′]dipyridin-2(1H)-yl)-2-oxoethoxy)-N,6-dicyclopropylpicolinamide]
0.014 | CN(CC(F)(F)F)c1ccc(OCC(=O)N2CCc3nc4ccccn4c3C2c2ccc(Cl)cc2F)c(Cl)n1 (centres unmarked) [Example 1.4.11, 1-(1-(4-chloro-2-fluorophenyl)-3,4-dihydroimidazo[1,2-a:5,4-c′]dipyridin-2(1H)-yl)-2-((2-chloro-6-(methyl(2,2,2-trifluoroethyl)amino)pyridin-3-yl)oxy)ethan-1-one]
0.01 | CS(=O)(=O)Nc1ccc(OCC(=O)N2CCc3nc4ccccn4c3C2c2ccc(Cl)cc2F)c(Cl)n1 (centres unmarked) [Example 1.4.7, N-(6-chloro-5-(2-(1-(4-chloro-2-fluorophenyl)-3,4-dihydroimidazo[1,2-a:5,4-c′]dipyridin-2(1H)-yl)-2-oxoethoxy)pyridin-2-yl)methanesulfonamide]
